“And” between values parts separate entries of the source, which are not always exact repeats. Equal values may be shown once.
Columns and labels:
Assay in all cases: MIC and checkerboard (FIC) assay
CA-MRSA strain ST30 = format: cell-based, Staphylococcus aureus; details: ST30
[1] = tested on: clinical fusidic acid resistant MRSA strain 73621; format: cell-based, Staphylococcus aureus; details: for FIC / MIC combine: 73621
[2] = tested on: clinical fusidic acid resistant MRSA strain 96591; format: cell-based, Staphylococcus aureus; details: for FIC / MIC combine: 96591
[3] = tested on: S. aureus SA-APH2″-AAC6′ (APH2), resistant to gentamicin; details: for FIC / MIC combine: APH2
[4] = tested on: S. aureus SA-ANT4′ (ANT4), resistant to fusidic acid; details: for FIC / MIC combine: ANT4
MRSA SA-ST239 = details: ST239
[5] = tested on: S. aureus ATCC25923 (methicillin sensitive); details: ATCC 25293
CA MRSA W44 = details: W44
CA MRSA W101 = details: W101
CA MRSA W103 = details: W103
CA MRSA W106 = details: W106
CA MRSA W113 = details: W113
CA MRSA W114 = details: W114
HA MRSA W232 = details: W232
HA MRSA W233 = tested on: HA MRSA W233
HA MRSA W235 = details: W235
HA MRSA W238 = tested on: HA MRSA W238
HA MRSA W239 = details: W239
HA MRSA W240 = details: W240

**Q.** What does the source list for `C=C(C)[C@H](CC=C(C)C)Cc1c(O)cc(OC)c(C(=O)/C=C/c2ccc(O)cc2O)c1O` [Kuraridin]?
**A.** MIC alone (CA-MRSA strain ST30): 8 µg/mL; FIC (CA-MRSA strain ST30; ECG with Kur): 0.5; MIC combine (CA-MRSA strain ST30; ECG with Kur): 4 µg/mL; FIC (CA-MRSA strain ST30; ECG+Kur+Van): 0.125; MIC combine (CA-MRSA strain ST30; ECG+Kur+Van): 1 µg/mL; MIC alone (CA-MRSA strain ST30; Table 5): 8 µg/mL; MIC alone ([1]; 73621 (fusidic acid resistant)): 8 µg/mL; FIC ([1]; ECG+Kur+Fus): 0.5; MIC combine ([1]; ECG+Kur+Fus): 4 µg/mL; FIC ([1]; ECG+Kur, no Fus): 0.5; MIC combine ([1]; ECG+Kur, no Fus): 4 µg/mL; MIC alone ([2]; 96591 (fusidic acid resistant), listed as Kur): 4 µg/mL and 8 µg/mL; FIC ([2]; ECG+Kur+Fus): 0.5; MIC combine ([2]; ECG+Kur+Fus): 2 µg/mL; FIC ([2]; ECG+Kur, no Fus): 0.5; MIC combine ([2]; ECG+Kur, no Fus): 4 µg/mL; MIC alone ([3]; APH2 (gentamicin resistant)): 8 µg/mL; FIC ([3]; ECG+Kur+Gen): 0.25; MIC combine ([3]; ECG+Kur+Gen): 2 µg/mL; FIC ([3]; ECG+Kur, no Gen): 0.25; MIC combine ([3]; ECG+Kur, no Gen): 2 µg/mL; MIC alone ([4]; ANT4 (fusidic acid resistant)): 8 µg/mL; FIC ([4]; ECG+Kur+Fus): 0.25; MIC combine ([4]; ECG+Kur+Fus): 2 µg/mL; FIC ([4]; ECG+Kur, no Fus): 0.25; MIC combine ([4]; ECG+Kur, no Fus): 2 µg/mL; MIC alone (MRSA SA-ST239): 8 µg/mL; FIC (MRSA SA-ST239; ECG with Kur): 0.5; MIC combine (MRSA SA-ST239; ECG with Kur): 4 µg/mL; FIC (MRSA SA-ST239; ECG+Kur+Van): 0.125; MIC combine (MRSA SA-ST239; ECG+Kur+Van): 1 µg/mL; MIC alone (MRSA SA-ST239; Table 5): 8 µg/mL; MIC alone [5]: 8 µg/mL; FIC ([5]; ECG with Kur): 0.5; MIC combine ([5]; ECG with Kur): 4 µg/mL; MIC alone (CA MRSA W44): 8 µg/mL; FIC (CA MRSA W44; ECG with Kur): 0.25; MIC combine (CA MRSA W44; ECG with Kur): 2 µg/mL; FIC (CA MRSA W44; ECG+Kur+Van): 0.25; MIC combine (CA MRSA W44; ECG+Kur+Van): 2 µg/mL; MIC alone (CA MRSA W44; Table 5): 8 µg/mL; MIC alone (CA MRSA W101): 8 µg/mL; FIC (CA MRSA W101; ECG with Kur): 0.5; MIC combine (CA MRSA W101; ECG with Kur): 4 µg/mL; MIC alone (CA MRSA W103): 8 µg/mL; FIC (CA MRSA W103; ECG with Kur): 0.5; MIC combine (CA MRSA W103; ECG with Kur): 4 µg/mL; MIC alone (CA MRSA W106): 8 µg/mL; FIC (CA MRSA W106; ECG with Kur): 0.25; MIC combine (CA MRSA W106; ECG with Kur): 2 µg/mL; MIC alone (CA MRSA W113): 8 µg/mL; FIC (CA MRSA W113; ECG with Kur): 0.5; MIC combine (CA MRSA W113; ECG with Kur): 4 µg/mL; MIC alone (CA MRSA W114): 8 µg/mL; FIC (CA MRSA W114; ECG with Kur): 0.5; MIC combine (CA MRSA W114; ECG with Kur): 4 µg/mL; MIC alone (HA MRSA W232): 8 µg/mL; FIC (HA MRSA W232; ECG with Kur): 0.25; MIC combine (HA MRSA W232; ECG with Kur): 2 µg/mL; FIC (HA MRSA W232; ECG+Kur+Van): 0.25; MIC combine (HA MRSA W232; ECG+Kur+Van): 2 µg/mL; MIC alone (HA MRSA W232; Table 5): 8 µg/mL; MIC alone (HA MRSA W233; W233): 4 µg/mL; MIC alone (HA MRSA W233; W233 (gentamicin resistant)): 8 µg/mL; FIC (HA MRSA W233; W233, ECG with Kur): 0.5; MIC combine (HA MRSA W233; W233, ECG with Kur): 2 µg/mL; FIC (HA MRSA W233; W233, ECG+Kur+Gen): 0.5; MIC combine (HA MRSA W233; W233, ECG+Kur+Gen): 4 µg/mL; FIC (HA MRSA W233; W233, ECG+Kur+Van): 0.25; MIC combine (HA MRSA W233; W233, ECG+Kur+Van): 2 µg/mL; FIC (HA MRSA W233; W233, ECG+Kur, no Gen): 1; MIC combine (HA MRSA W233; W233, ECG+Kur, no Gen): 8 µg/mL; MIC alone (HA MRSA W233; W233, Table 5): 8 µg/mL; MIC alone (HA MRSA W235): 8 µg/mL; FIC (HA MRSA W235; ECG with Kur): 0.5; MIC combine (HA MRSA W235; ECG with Kur): 4 µg/mL; MIC alone (HA MRSA W238; W238): 8 µg/mL; MIC alone (HA MRSA W238; W238 (gentamicin resistant)): 8 µg/mL; FIC (HA MRSA W238; W238, ECG with Kur): 0.5; MIC combine (HA MRSA W238; W238, ECG with Kur): 4 µg/mL; FIC (HA MRSA W238; W238, ECG+Kur+Gen): 0.25; MIC combine (HA MRSA W238; W238, ECG+Kur+Gen): 2 µg/mL; FIC (HA MRSA W238; W238, ECG+Kur+Van): 0.25; MIC combine (HA MRSA W238; W238, ECG+Kur+Van): 2 µg/mL; FIC (HA MRSA W238; W238, ECG+Kur, no Gen): 0.5; MIC combine (HA MRSA W238; W238, ECG+Kur, no Gen): 4 µg/mL; MIC alone (HA MRSA W238; W238, Table 5): 8 µg/mL; MIC alone (HA MRSA W239): 8 µg/mL; FIC (HA MRSA W239; ECG with Kur): 0.5; MIC combine (HA MRSA W239; ECG with Kur): 4 µg/mL; FIC (HA MRSA W239; ECG+Kur+Van): 0.25; MIC combine (HA MRSA W239; ECG+Kur+Van): 2 µg/mL; MIC alone (HA MRSA W239; Table 5): 8 µg/mL; MIC alone (HA MRSA W240): 8 µg/mL; FIC (HA MRSA W240; ECG with Kur): 0.5; MIC combine (HA MRSA W240; ECG with Kur): 4 µg/mL

Reference: patent publication US11690810B2, “Combination treatment of bacterial infection” (The Chinese University of Hong Kong, priority 2018, dated 2023)
